{"source": "patent US20060183733A1", "about": "“Treating microvasculature diseases with acetyl cholinesterase inhibitors” (priority 2005, published 2006)", "key": {"[1]": {"system": "patients with myofascial pain / fibromyalgia", "assay": "Patient case histories: fibromyalgia / myofascial pain syndrome", "assay_type": "in vivo, human", "conditions": "donepizil 5 mg daily", "description": "The present invention provides a method for treating fibromyalgia and myofascial pain syndrome by increasing tissue levels of acetylcholine. Acetylcholine is the neurotransmitter of the parasympathic nervous system. The inventive method increases the relative amount of parasympathetic transmission and thereby facilitates resolution of the pain areas and diminishes the need for narcotics and polypharmacy. The reduction in the use of narcotics, NSAIDs, and tricyclic antidepressants and other medications used for pain having their deleterious side effects is a major benefit. By administration of acetyl cholinesterase inhibitor, the relative concentrations of acetylcholine are increased and available to propagate the impulses of the parasympathic nervous systems and within the non-neuronal acetylcholine receptors diminishing pain and spasms. […] The influence of non-neuronal acetylcholine receptors affected by enhanced levels of acetylcholine produces a reduction in pro-inflammatory mediators and increased blood flow to the nerve fibers involved in pain transmission. The net effect is a reduction in inflammation and improved blood flow to the vasovasorum of the affected nerves reducing the painful sensations."}, "[2]": {"system": "patients with urinary retention", "assay": "Patient case histories: urinary retention (voiding trials, post void residuals)"}}, "note": "Entries after “also recorded” stand apart in the source; their conditions may differ.", "data": [{"smiles": "COc1cc2c(cc1OC)C(=O)C(CC1CCN(Cc3ccccc3)CC1)C2", "note": "(stereo not shown) [donepizil, 1-benzyl-4->(5,6-dimethoxy-1-indanon)-2-yl methylpiperidine]", "values": [{"measurement": "clinical outcome (pain, narcotic use)", "setting": "[1]", "result": "able to eliminate their use of long acting; also recorded: decreased pain complaints in their neck; also recorded: controlled without the use of narcotics or NSAID's; also recorded: improvement in their back pain complaints; also recorded: pain complaints were significantly reduced over a four-week period; also recorded: no recurrence of their back pain or leg cramps; also recorded: no recurrence of cramps"}, {"measurement": "side effects", "setting": "[1]", "result": "no reported GI upset or diarrhea; also recorded: well tolerated; also recorded: no nausea or diarrhea"}, {"measurement": "post void residuals (PVR's)", "setting": "[2]; donepizil 5 mg orally daily with Detrol LA 2 mg orally daily", "result": "less than 100 cc"}, {"measurement": "voiding trial", "setting": "[2]; donepizil 5 mg orally daily, 24-48 hours or more before the trial", "result": "able to void without incident; also recorded: successful"}]}]}
